We go through 2 compounds from patent US11826396B2, “Nutriprotective diet” (FÉDÉRATION DES PRODUCTEURS ACÉRICOLES DU QUÉBEC, priority 2011, dated 2023).

The test can be described thus: diphenylpicrylhydrazyl (DPPH) radical scavenging assay. It counts as biochemical. To be noted: read-out: antioxidant activity, IC50. In general terms: DPPH is a stable violet radical that fades when it is reduced.

In the case of `Cc1cc(C(C)(C)C)c(O)c(C(C)(C)C)c1` [butylatedhydroxytoluene], the IC50 was 2650 µM.

`O=C1O[C@H]([C@@H](O)CO)C(O)=C1O` [vitamin C, Ascorbic acid]: the IC50 turned out to be 58 µM.

A word on the IC50: it is the point on the concentration scale where inhibition reaches its midpoint.
